Measurements published in ChEMBL document CHEMBL1139683, “Pyridone derivatives as potent, orally bioavailable VLA-4 integrin antagonists” (Bioorg Med Chem Lett, 2006).

Key:
Rattus norvegicus = species: Rattus norvegicus; assay: Dose normalised AUC (0-8 hrs) in rat; assay type: ADME, organism-based; set-up: time < 8 hr; conditions: in vivo
Integrin alpha-4/beta-1 = Integrin alpha-4/beta-1 (Homo sapiens, UniProt P05556+P13612); assay: Inhibition of integrin alpha-4-beta-1 receptor expressed in Jurkat J6 cells by SPA; assay type: cell-based
[1] = Half life in rat; assay type: ADME, organism-based; conditions: in vivo
[2] = Clearance in iv dosed rat; assay type: ADME, organism-based; conditions: in vivo
[3] = Bioavailability in Sprague-Dawley rat at 1 mg/kg, iv and 3 mg/kg, po; assay type: ADME, organism-based; conditions: in vivo
[4] = Volume of distribution of steady state in rat; assay type: ADME, organism-based; conditions: in vivo, read-out: Vss

Integrin alpha-4/beta-1, sequence (P05556 whole entry): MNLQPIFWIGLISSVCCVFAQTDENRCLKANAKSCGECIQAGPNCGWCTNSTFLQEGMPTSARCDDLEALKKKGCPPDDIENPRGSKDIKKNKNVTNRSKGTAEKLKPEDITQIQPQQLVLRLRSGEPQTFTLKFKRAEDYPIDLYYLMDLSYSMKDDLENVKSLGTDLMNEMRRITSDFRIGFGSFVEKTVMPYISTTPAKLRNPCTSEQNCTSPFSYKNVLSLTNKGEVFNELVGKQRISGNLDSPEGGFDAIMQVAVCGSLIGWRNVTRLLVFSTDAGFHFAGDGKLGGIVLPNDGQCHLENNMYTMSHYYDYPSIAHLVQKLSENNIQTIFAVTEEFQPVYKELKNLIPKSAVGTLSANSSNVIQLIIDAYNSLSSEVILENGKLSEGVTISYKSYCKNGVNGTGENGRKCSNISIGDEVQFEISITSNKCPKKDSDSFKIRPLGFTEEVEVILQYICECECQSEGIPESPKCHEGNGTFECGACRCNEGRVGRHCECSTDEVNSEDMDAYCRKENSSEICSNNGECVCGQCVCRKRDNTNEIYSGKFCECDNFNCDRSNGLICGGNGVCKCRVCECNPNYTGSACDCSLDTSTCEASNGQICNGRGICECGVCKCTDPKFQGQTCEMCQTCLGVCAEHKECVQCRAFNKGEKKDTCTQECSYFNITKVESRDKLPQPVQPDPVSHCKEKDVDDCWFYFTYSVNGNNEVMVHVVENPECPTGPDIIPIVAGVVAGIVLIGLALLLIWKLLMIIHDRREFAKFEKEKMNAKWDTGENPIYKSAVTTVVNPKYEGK
Integrin alpha-4/beta-1, sequence (P13612 whole entry): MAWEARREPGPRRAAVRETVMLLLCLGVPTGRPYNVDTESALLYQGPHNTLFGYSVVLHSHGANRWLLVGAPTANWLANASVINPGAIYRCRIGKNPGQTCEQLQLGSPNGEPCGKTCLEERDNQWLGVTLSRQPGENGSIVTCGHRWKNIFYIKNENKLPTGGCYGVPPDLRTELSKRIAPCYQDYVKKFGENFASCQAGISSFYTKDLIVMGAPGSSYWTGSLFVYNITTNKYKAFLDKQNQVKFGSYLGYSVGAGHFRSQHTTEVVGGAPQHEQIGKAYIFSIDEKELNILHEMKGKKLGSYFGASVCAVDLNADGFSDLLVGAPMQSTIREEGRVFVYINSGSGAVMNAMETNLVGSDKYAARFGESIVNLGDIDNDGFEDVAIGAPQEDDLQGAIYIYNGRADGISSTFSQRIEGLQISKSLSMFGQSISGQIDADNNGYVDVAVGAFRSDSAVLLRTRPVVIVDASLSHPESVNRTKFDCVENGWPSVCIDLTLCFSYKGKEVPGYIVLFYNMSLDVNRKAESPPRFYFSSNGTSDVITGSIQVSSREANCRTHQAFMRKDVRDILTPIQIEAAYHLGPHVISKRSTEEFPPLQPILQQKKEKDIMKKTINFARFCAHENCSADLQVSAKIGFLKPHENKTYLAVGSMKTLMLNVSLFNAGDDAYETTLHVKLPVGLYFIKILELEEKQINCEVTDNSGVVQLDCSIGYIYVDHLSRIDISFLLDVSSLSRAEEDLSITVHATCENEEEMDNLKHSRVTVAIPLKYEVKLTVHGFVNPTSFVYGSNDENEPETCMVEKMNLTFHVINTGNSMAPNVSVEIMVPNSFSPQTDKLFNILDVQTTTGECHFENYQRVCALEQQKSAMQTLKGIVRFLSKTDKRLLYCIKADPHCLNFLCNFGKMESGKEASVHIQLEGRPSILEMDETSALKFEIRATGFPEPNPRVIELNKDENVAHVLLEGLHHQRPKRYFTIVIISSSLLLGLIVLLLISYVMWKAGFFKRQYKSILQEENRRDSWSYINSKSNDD

Row | Compound | Ki (Integrin alpha-4/beta-1) [nM] | also measured
1 | COc1cc(-c2cccn(Cc3ccc(CCC(=O)O)cc3)c2=O)ccc1NC(=O)Nc1ccccc1C |  | AUC (Rattus norvegicus): 6 kg·min/L
2 | COc1cc(-c2cccn(Cc3ccc(CCC(=O)O)cc3)c2=O)ccc1NC(=O)Nc1cc(C)ccc1C | 7.94 | 
3 | Cc1ccccc1NC(=O)Nc1ccc(-c2cccn(Cc3ccc([C@@H](C)CC(=O)O)cc3)c2=O)c(C)c1 | 2.51 | 
4 | Cc1ccccc1NC(=O)Nc1ccc(-c2cccn(Cc3ccc([C@@H](C)CC(=O)O)cc3)c2=O)c(Cl)c1 | 2 | 
5 | Cc1ccccc1NC(=O)Nc1ccc(-c2cccn(Cc3ccc([C@H](C)CC(=O)O)cc3)c2=O)c(C)c1 | 1 | 
6 | Cc1ccccc1NC(=O)Nc1ccc(-c2cccn(Cc3ccc([C@H](C)CC(=O)O)cc3)c2=O)cc1 | 1 | AUC (Rattus norvegicus): 14 kg·min/L; half-life [1]: 1.3 h; clearance [2]: 0.96 L/h/kg; bioavailability [3]: 22%; Vd [4]: 0.6 L/kg
7 | COc1cc(-c2cccn(Cc3ccc(CCC(=O)O)cc3)c2=O)ccc1NC(=O)Nc1ccccc1Br | 5.01 | 
8 | Cc1ccccc1NC(=O)Nc1ccc(-c2cccn(Cc3ccc([C@@H](C)CC(=O)O)cc3)c2=O)cc1C | 20 | 
9 | COc1cc(-c2cccn(Cc3ccc(CCC(=O)O)cc3)c2=O)ccc1NC(=O)Nc1c(C)cccc1C | 2 | 
10 | Cc1ccccc1NC(=O)Nc1ccc(-c2cccn(Cc3ccc([C@H](C)CC(=O)O)cc3)c2=O)c(OC(F)(F)F)c1 | 3.98 | 
11 | Cc1ccccc1NC(=O)Nc1ccc(-c2cccn(Cc3ccc([C@@H](C)CC(=O)O)cc3)c2=O)cc1Cl | 25.1 | 
12 | CCOc1cc(NC(=O)Nc2ccccc2C)ccc1-c1cccn(Cc2ccc([C@@H](C)CC(=O)O)cc2)c1=O | 5.01 | 
13 | Cc1ccccc1NC(=O)Nc1ccc(-c2cccn(Cc3ccc([C@H](C)CC(=O)O)cc3)c2=O)c(Cl)c1 | 1 | 
14 | CCOc1cc(NC(=O)Nc2ccccc2C)ccc1-c1cccn(Cc2ccc([C@H](C)CC(=O)O)cc2)c1=O | 2 | 
15 | Cc1ccccc1NC(=O)Nc1ccc(-c2cccn(Cc3ccc([C@H](C)CC(=O)O)cc3)c2=O)cc1C | 2.51 | 
16 | COc1cc(-c2cccn(Cc3ccc(CCC(=O)O)cc3)c2=O)ccc1NC(=O)Nc1ccccc1 | 1.58 | 

The remaining compounds from weak to strong by Ki (Integrin alpha-4/beta-1), led by results:

Row | Ki (Integrin alpha-4/beta-1) [nM] | Compound | also measured
17 | 316 | COc1cc(-c2cccn(Cc3ccc(CCC(=O)O)cc3)c2=O)ccc1NC(=O)Nc1ccccc1C(C)C | 
18 | 50.1 | CCc1cc(NC(=O)Nc2ccccc2C)ccc1-c1cccn(Cc2ccc([C@@H](C)CC(=O)O)cc2)c1=O | 
19 | 25.1 | COc1cc(-c2cccn(Cc3ccc(CCC(=O)O)cc3)c2=O)ccc1NC(=O)Nc1ccc(C)cc1C | 
20 | 25.1 | COc1cc(-c2cccn(Cc3ccc(CCC(=O)O)cc3)c2=O)ccc1NC(=O)Nc1cccc(C)c1C | 
21 | 20 | Cc1ccccc1NC(=O)Nc1ccc(-c2cccn(Cc3ccc([C@@H](C)CC(=O)O)cc3)c2=O)c(OC(F)(F)F)c1 | 
22 | 6.31 | COc1cc(-c2cccn(Cc3ccc(CCC(=O)O)cc3)c2=O)ccc1NC(=O)Nc1ccccc1NC(C)=O | 
23 | 6.31 | COc1ccccc1NC(=O)Nc1ccc(-c2cccn(Cc3ccc(CCC(=O)O)cc3)c2=O)cc1OC | 
24 | 6.31 | CCc1cc(NC(=O)Nc2ccccc2C)ccc1-c1cccn(Cc2ccc([C@H](C)CC(=O)O)cc2)c1=O | 
25 | 2.51 | Cc1ccccc1NC(=O)Nc1ccc(-c2cccn(Cc3ccc(CCC(=O)O)cc3)c2=O)cc1 | AUC (Rattus norvegicus): 3 kg·min/L
26 | 2.51 | Cc1ccccc1NC(=O)Nc1ccc(-c2cccn(Cc3ccc([C@@H](C)CC(=O)O)cc3)c2=O)cc1 | 
27 | 1 | COc1cc(-c2cccn(Cc3ccc([C@@H](C)CC(=O)O)cc3)c2=O)ccc1NC(=O)Nc1ccccc1C | 
28 | 0.794 | Cc1ccccc1NC(=O)Nc1ccc(-c2cccn(Cc3ccc([C@H](C)CC(=O)O)cc3)c2=O)cc1Cl | 
29 | 0.794 | COc1cc(-c2cccn(Cc3ccc([C@H](C)CC(=O)O)cc3)c2=O)ccc1NC(=O)Nc1ccccc1C | AUC (Rattus norvegicus): 154 kg·min/L; half-life [1]: 1.4 h; clearance [2]: 0.54 L/h/kg; bioavailability [3]: 121%; Vd [4]: 0.6 L/kg
